The results in this text go back to US20260315434A1, “USE OF GUAIACOL SESQUITERPENE LACTONE DERIVATIVES” (NANJING UNIVERSITY OF CHINESE MEDICINE, priority 2023, published 2026).

The subject of series [1] is inflammatory cytokines (TNF, IL-6, IL-1) in lung tissue. Kind of series: LPS-induced sepsis, lung inflammatory factor mRNA (Q-PCR). To be noted: for Il1 mRNA expression, lung: LPS 19.01; for Il6 mRNA expression, lung: LPS 20.34; for Tnf mRNA expression, lung: Normal = 1.00, LPS 10.92.
From the text: (§1) They were acclimated for 7 days before experimentation.
(§2) The normal and model groups received equal volumes of solvent (0.5% CMC-Na) via oral gavage.
(§3) Specimen Collection: One hour after the final drug administration, mice were euthanized by cervical dislocation. The abdominal cavity was opened, and the lungs, liver, and kidneys were removed. These organs were rinsed twice with pre-chilled PBS. Tissue samples were excised from the mouse lungs, left hepatic lobe, and kidneys. […] Remaining tissues were stored at −70° C. for future use.
(§4) Accurately weigh 20 mg of kidney, lung, and liver tissue. Rinse with pre-chilled PBS solution, cut into small pieces using ophthalmic scissors, and place into a glass homogenizer. Add 1 mL of Trizol reagent and grind to prepare tissue homogenate. Transfer the homogenate to a RNAse-free 1.5 mL EP tube and lyse on ice for 10 min. Add 200 μL chloroform, vortex vigorously, and let stand on ice for 3-5 min. Centrifuge at 12,000 rpm and 4° C. for 15 min. Carefully transfer the supernatant to a new RNAse-free 1.5 mL EP tube. Add an equal volume of pre-chilled isopropanol, incubate on ice for 30 min, then centrifuge at 12,000 rpm and 4° C. for 10 min. Discard the supernatant. […] Subsequently, dissolve the pellet in 10 μL DEPC-treated water. Dilute 1 μL of the total RNA solution 100-fold and measure the OD values at 260 nm and 280 nm using a full-wavelength microplate reader.
(§5) Following the method described in the kit manual, subsequent experiments were conducted using a 20 μL reverse transcription reaction system:
(§6) Primers were designed based on the nucleotide sequence of the mouse in GenBank and synthesized.
(§7) Perform subsequent experiments using a 20 μL reaction system according to the kit instructions:
(§8) After adding the above reagents to micro reaction tubes, seal them with the cap and place them in the Q-PCR instrument. Set the parameters according to the following reaction conditions to perform the amplification experiment.
(§9) Record the threshold cycle (Ct) values for each group and perform calculation and analysis using the 2^−ΔΔCt method (setting the expression level of the reference gene Gapdh as 1 to correct the expression levels of the target genes).
(§10) Data Statistics: All data are presented as Means±S.E.M. Analysis of variance (ANOVA) was performed to assess the significance of differences. Groups showing significant differences in ANOVA were further compared using one-way ANOVA and Dunnett's test. A P-value <0.05 was considered statistically significant.
For series [2], the system named is inflammatory factors (TNF, IL-6, IL-1) in renal tissue. The series is described as follows: Lupus nephritis, renal inflammatory factor mRNA. Format: in vivo, MRL/lpr mice. The following applies: 8 weeks. Here is the method: Experimental animals: MRI/MpJ and MRL/lpr mice, female, 10 weeks old, purchased from GemPharmatech LLC. Production license number: SCXK(Su)2023-0009. […] They were acclimated for 7 days before use in experiments.
Oral administration was performed continuously for 8 weeks.
Allow blood to stand at room temperature for 2 hours, then centrifuge at 3000 rpm for 20 minutes. Aspirate the serum, aliquot it, and store at −70° C. for future use. After blood collection, euthanize mice by cervical dislocation. Open the abdominal cavity, remove kidneys, and dissect out perirenal fat and capsules. […] Store remaining tissues at −70° C. for future use.

Series [3] has the same test system. Kind of series: LPS-induced sepsis, renal inflammatory factor mRNA (Q-PCR). To be noted: for Tnf mRNA expression, kidney: LPS 7.30; for Il1 mRNA expression, kidney: LPS 7.99; for Il6 mRNA expression, kidney: LPS 8.80.
From the text: as §1, §2, §3, §4, §5, §6, §7, §8, §9, §10
Series [4] deals with inflammatory cytokines (IL-1β, IL-6) in lung tissue. The series is described as follows: LPS-induced acute lung injury, inflammatory cytokines by ELISA. Format: in vivo, C57BL/6 mice. The following applies: for IL-1β: LPS 2411.32; for IL-6: LPS 3520.94. On the procedure: After a 7-day acclimatization period, mice were used for subsequent experiments.
The abdomen was opened, and the lungs were removed. They were rinsed twice with pre-chilled PBS. […] The remaining tissue was stored at −70° C. for future use.
Data Statistics: All data are expressed as means S.E.M. Statistical differences between groups were analyzed using one-way ANOVA and t-tests in SPSS software. P values less than 0.05 were considered statistically significant.
Background: In an ELISA, binding on a coated surface is turned into a signal by an enzyme label.

Series [5] relates to inflammatory factors (MCP-1, TNF-α) in renal tissue. The series is described as follows: Diabetic nephropathy, renal inflammatory factor mRNA. In kind it is in vivo, C57/BL6J mice. Details: Mcp-1 mRNA expression, kidney / Tnf-α mRNA expression, kidney / IL-6 mRNA expression, kidney: unit not given here. To be noted: 8 weeks. On the procedure:
Experimental animals: C57/BL6J mice, male, 12 weeks old, purchased from GemPharmatech LLC. Production license number: SCXK(Su)2023-0009. […] Animals were acclimated for 7 days before use in experiments.
Administer streptozotocin (STZ, 50 mg/kg) via intraperitoneal injection for 5 consecutive days. After 72 hours, select mice with fasting blood glucose levels exceeding 16.7 mmol/L as model mice. […] Model mice were fed a high-fat diet (HFD) providing 60% of energy from fat for 8 weeks. After 8 weeks, gavage administration commenced.
Specimen Collection: One hour after the last drug administration, enucleate the eyeball to collect blood. Allow blood to stand at room temperature for 2 hours, then centrifuge at 3000 rpm for 20 minutes. Aspirate the serum, aliquot it, and store at −70° C. for future use. After blood collection, euthanize the mice by cervical dislocation. Open the abdominal cavity, remove the kidneys, and dissect away the perirenal fat and capsule. Store the tissue at −70° C. for future use.

Series [6] deals with serum ALT and AST. Kind of series: CCl4-induced acute liver injury, serum ALT and AST. Format: in vivo, C57BL/6 mice. On the procedure: They were acclimated for 7 days before use in experiments.
Mice were randomly assigned to groups. One group was arbitrarily designated as the normal group, while the remaining groups served as model group, Compound 1 group, Hydrochloride 20 group, Fumarate 21 group, and Silibinin group, with 6 mice per group. Except for the normal group receiving 10 mL olive oil/kg via injection, all other mice received 0.5 mL CCl4+9.5 mL olive oil/kg body weight via intraperitoneal injection, maintaining a CCl4 to olive oil ratio of 1:19. Starting from day 1 of modeling, Compound 1, Hydrochloride 20, and Fumarate 21 were administered orally for 3 consecutive days.
The blood was allowed to stand at room temperature for 2 hours, then centrifuged at 3000 rpm for 20 minutes. Serum was aspirated, aliquoted, and stored at −70° C. for future use. After blood collection, euthanize mice by cervical dislocation. Perform laparotomy to remove the liver. Rinse twice with pre-chilled PBS. Excise the left hepatic lobe tissue. […] Store remaining tissue at −70° C. for future use.
Serum AST and ALT Assay: Use 10 μL of each sample for testing. Determine mouse serum AST and ALT levels according to the operating manual. Measure absorbance at 510 nm using an enzyme-linked immunosorbent assay (ELISA) reader. Calculate sample concentration (U/L) based on the standard curve.
Data Statistics: All data are expressed as means f standard error of the mean (S.E.M.). Differences were analyzed for significance using analysis of variance (ANOVA). For groups showing significant differences in ANOVA, one-way ANOVA followed by Dunnett's test was performed to compare intergroup differences.

The test system of series [7] is serum creatinine and blood urea nitrogen. The series is described as follows: Folic acid-induced acute kidney injury, serum creatinine and urea. In kind it is in vivo, C57BL/6 mice. The arrangement: unit not given here. To be noted: folic acid acute model. On the procedure: Except for the normal group, all other mice were administered folic acid (250 mg/kg) dissolved in 0.9% NaHCO3 solution via intraperitoneal injection to establish an acute kidney injury model.
The blood was allowed to stand at room temperature for 2 hours, then centrifuged at 3000 rpm for 20 minutes. Serum was aspirated, aliquoted, and stored at −70° C. for future use. Following blood collection, euthanize mice by cervical dislocation. Perform laparotomy to remove kidneys, dissect out perirenal fat and capsules. […] Paraffin-embedded specimens undergo HE staining; remaining tissue is stored at −70° C. for future use.
Serum Creatinine (Scr) and Blood Urea Nitrogen (BUN) Level Assay: 10 μL of serum from each sample was used for creatinine and urea level detection. Samples were added sequentially strictly following the kit instructions. After incubation at 37° C., absorbance values were measured using an enzyme-linked immunosorbent assay (ELISA) reader. The concentration levels of each indicator were calculated based on the standard curve.

Series [8] is described as follows: Water solubility testing of compounds (HPLC). To be noted: deionized water, water, Water-solubility, 37 °C.

Each structure is given as a SMILES string. Values after ≈ are worked out from the molar mass of the structure shown. Marks after values point to notes of the source that are not given here.

Turning to `CN(C)C[C@@H]1C(=O)O[C@H]2[C@H]1CC[C@@]1(C)C[C@]13CC[C@@](C)(O)[C@H]23` [Compound 20], in series [1] (1 mg/kg oral), the “Il1 mRNA expression, lung” value came to 5.22 ± 0.90; the “Il6 mRNA expression, lung” value came out at 7.16 ± 0.71; the “Tnf mRNA expression, lung” value stood at 6.52 ± 0.29. Moreover, in series [2] (30 mg/kg oral), the “Il1 mRNA expression, kidney” value turned out to be 6.01 ± 0.99; the “Il6 mRNA expression, kidney” value came out at 11.80 ± 1.90; the “Tnf mRNA expression, kidney” value is on record as 4.04 ± 0.33. For the same compound, in series [3] (1 mg/kg oral), the “Tnf mRNA expression, kidney” value came to 6.20 ± 0.60; the “Il1 mRNA expression, kidney” value came to 2.76 ± 0.59; the “Il6 mRNA expression, kidney” value is given as 2.43 ± 0.64. Also, in series [4] (0.1 mg/kg), the IL-1β is recorded as 1570.02 ± 62.95 pg/mL and the IL-6 is recorded as 2348.32 ± 202.75 pg/mL. Also, in series [4] (1 mg/kg), the IL-1β is 708.74 ± 38.40 pg/mL and the IL-6 is 1172.00 ± 240.50 pg/mL. For the same compound, in series [5] (1 mg/kg gavage), the “Mcp-1 mRNA expression, kidney” value worked out at 2.33 ± 0.20 and the “Tnf-α mRNA expression, kidney” value is 1.38 ± 0.17. In addition, in series [5] (10 mg/kg gavage), the “Mcp-1 mRNA expression, kidney” value is 1.40 ± 0.22 and the “Tnf-α mRNA expression, kidney” value is on record as 0.96 ± 0.13. In addition, in series [6] (1 mg/kg oral), the ALT amounted to 85.02 ± 15.84 U/L and the AST turned out to be 153.34 ± 27.59 U/L.

In the case of `CN(C)C[C@@H]1C(=O)O[C@H]2[C@H]1CC[C@@]1(C)C[C@]13CC[C@@](C)(O)[C@H]23` [Compound 21], in series [1] (0.1 mg/kg oral), the “Il1 mRNA expression, lung” value is on record as 13.30 ± 0.88; the “Il6 mRNA expression, lung” value came out at 18.40 ± 3.16; the “Tnf mRNA expression, lung” value was 8.79 ± 1.18. In addition, in series [1] (1 mg/kg oral), the “Il1 mRNA expression, lung” value was 6.79 ± 0.72; the “Il6 mRNA expression, lung” value came to 9.10 ± 1.20; the “Tnf mRNA expression, lung” value is reported as 8.67 ± 1.51. For the same compound, in series [7] (0.1 mg/kg oral), the BUN was 30.08 ± 3.03 and the “Scr (serum creatinine)” value is 90.69 ± 12.83. Besides, the BUN in series [7] (1 mg/kg oral) was 18.95 ± 2.58. Further, the “Scr (serum creatinine)” value in series [7] (1 mg/kg oral, 1 mg/kg) is given as 50.39 ± 7.65. In series [3] (0.1 mg/kg oral), the “Tnf mRNA expression, kidney” value came out at 6.70 ± 0.80; the “Il1 mRNA expression, kidney” value is 6.56 ± 0.88; the “Il6 mRNA expression, kidney” value worked out at 6.05 ± 0.19. Also, in series [3] (1 mg/kg oral), the “Tnf mRNA expression, kidney” value is 6.04 ± 1.62; the “Il1 mRNA expression, kidney” value is recorded as 2.82 ± 0.33; the “Il6 mRNA expression, kidney” value is given as 2.70 ± 0.52. Besides, in series [4] (0.1 mg/kg), the IL-1β is 1623.55 ± 32.64 pg/mL and the IL-6 was 2585.26 ± 273.50 pg/mL. For the same compound, in series [4] (1 mg/kg), the IL-1β worked out at 888.28 ± 35.20 pg/mL and the IL-6 worked out at 1288.32 ± 123.80 pg/mL. Also, in series [6] (0.1 mg/kg oral), the ALT was 132.32 ± 31.96 U/L and the AST came out at 385.64 ± 28.70 U/L. In series [6] (1 mg/kg oral), the ALT stood at 95.82 ± 2.72 U/L and the AST came to 215.82 ± 63.48 U/L.

In series [8], `CC1=C2CC[C@@](C)(OC(=O)N3CCCCC3)[C@@H]2[C@H]2OC(=O)[C@@H](CN(C)C)[C@@H]2CC1` [Compound 102] returned a solubility of 132 mg/mL (≈ 328 mM).

As for `CC1=C2CC[C@@](C)(OC(=O)N3CCCC3)[C@@H]2[C@H]2OC(=O)[C@@H](CN3CCCC3)[C@@H]2CC1` [Compound 103], in series [7] (0.1 mg/kg oral), the BUN was determined as 23.42 ± 13.11 and the “Scr (serum creatinine)” value was determined as 74.95 ± 21.37. In series [7] (1 mg/kg oral), the BUN was determined as 20.38 ± 10.82 and the “Scr (serum creatinine)” value is listed as 73.88 ± 14.26. Moreover, in series [7] (10 mg/kg oral), the BUN is on record as 17.72 ± 7.78 and the “Scr (serum creatinine)” value came to 45.19 ± 7.41. In series [2] (10 mg/kg, oral), the “Il1 mRNA expression, kidney” value is recorded as 6.78 ± 0.96; the “Il6 mRNA expression, kidney” value is listed as 2.47 ± 0.53; the “Tnf mRNA expression, kidney” value is 7.24 ± 3.10. In addition, in series [2] (30 mg/kg oral), the “Il1 mRNA expression, kidney” value was found to be 4.11 ± 0.41; the “Il6 mRNA expression, kidney” value was 1.83 ± 0.91; the “Tnf mRNA expression, kidney” value was determined as 4.10 ± 0.67. In series [5] (1 mg/kg gavage), the “IL-1 β mRNA expression, kidney” value was 1.00 ± 0.25 ^; the “IL-6 mRNA expression, kidney” value amounted to 4.47 ± 1.06; the “Mcp-1 mRNA expression, kidney” value was 6.78 ± 1.70; the “Tnf-α mRNA expression, kidney” value is given as 3.14 ± 0.57. Moreover, in series [5] (10 mg/kg gavage), the “IL-1 β mRNA expression, kidney” value was 0.96 ± 0.18**^; the “IL-6 mRNA expression, kidney” value was 3.97 ± 0.94; the “Mcp-1 mRNA expression, kidney” value is listed as 5.67 ± 2.31; the “Tnf-α mRNA expression, kidney” value was found to be 2.15 ± 0.13. In series [8], this compound returned a solubility of 278 mg/mL (≈ 668 mM).

What is called solubility is the dissolved amount per volume that the medium holds.
